From ChEMBL document CHEMBL1137327, “Optimization of chromone-2-carboxamide melanin concentrating hormone receptor 1 antagonists: assessment of potency, efficacy, and cardiovascular safety” (J Med Chem, 2006)
Calls of active or inactive are those of the source. No cut-off for these calls is given here.

Key:
[1] = biological target: T1, Melanin-concentrating hormone receptor 1 (Homo sapiens, UniProt Q99705); experiment: Displacement of [125I]MCH from MCHr1 expressed in IMR32 cells; format: cell-based, IMR-32
T1 sequence (Q99705 whole entry): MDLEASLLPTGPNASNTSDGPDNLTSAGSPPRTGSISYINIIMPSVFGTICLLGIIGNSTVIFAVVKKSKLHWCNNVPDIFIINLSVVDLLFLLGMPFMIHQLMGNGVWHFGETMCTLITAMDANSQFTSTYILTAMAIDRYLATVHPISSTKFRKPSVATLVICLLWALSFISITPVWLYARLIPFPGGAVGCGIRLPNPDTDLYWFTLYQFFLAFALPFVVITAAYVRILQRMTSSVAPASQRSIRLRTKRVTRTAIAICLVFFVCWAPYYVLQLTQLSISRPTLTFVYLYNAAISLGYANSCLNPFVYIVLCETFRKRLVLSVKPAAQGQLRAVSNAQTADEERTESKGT

[2] = biological target: T1, Melanin-concentrating hormone receptor 1; experiment: Antagonist activity at MCHr1 assessed as inhibition of MCH-mediated calcium ion release in intact IMR32 cells by FLIPR assay; format: functional, cell-based, IMR-32
Rattus norvegicus [3] = experiment: Drug level in anesthetized Sprague-Dawley rat plasma; format: ADME, organism-based; settings: in vivo
Rattus norvegicus [4] = experiment: Drug level in anesthetized Sprague-Dawley rat brain; format: ADME, organism-based; settings: in vivo
[5] = Cmax in C57BL/6J DIO mouse plasma at 10 mg/kg, po; format: ADME, organism-based; design: dose 10 mg/kg, route oral; settings: read-out: Cmax
[6] = Half life in C57BL/6J DIO mouse plasma at 10 mg/kg, po; format: ADME, organism-based; design: dose 10 mg/kg, route oral
[7] = Cmax in C57BL/6J DIO mouse brain at 10 mg/kg, po; format: ADME, organism-based; design: dose 10 mg/kg, route oral
[8] = Half life in C57BL/6J DIO mouse brain at 10 mg/kg, po; format: ADME, organism-based; design: dose 10 mg/kg, route oral
Mus musculus [9] = experiment: AUC in C57BL/6J DIO mouse brain at 10 mg/kg, po; format: ADME, organism-based; design: dose 10 mg/kg, route oral; settings: in vivo
[10] = Ratio of AUC in brain to plasma of C57BL/6J DIO mouse at 10 mg/kg, po; format: ADME, organism-based; design: dose 10 mg/kg, route oral; settings: brain and plasma, read-out: Ratio AUC
Mus musculus [11] = experiment: Decrease in body weight of C57BL/6J DIO mouse at 10 mg/kg, po after 14 days relative to control; format: functional; design: scale not given: the % may be the effect or the level left
Mus musculus [12] = experiment: Decrease in body weight of C57BL/6J DIO mouse at 30 mg/kg, po after 14 days relative to control; format: functional; design: scale not given: the % may be the effect or the level left
[13] = Drug level in C57BL/6J DIO mouse plasma at 10 mg/kg, po after 14 days; format: ADME, organism-based; design: dose 10 mg/kg, route oral
[14] = Drug level in C57BL/6J DIO mouse plasma at 30 mg/kg, po after 14 days; format: ADME, organism-based; design: dose 30 mg/kg, route oral
[15] = Drug level in C57BL/6J DIO mouse brain at 10 mg/kg, po after 14 days; format: ADME, organism-based; design: dose 10 mg/kg, route oral; settings: read-out: Drug uptake
[16] = Drug level in C57BL/6J DIO mouse brain at 30 mg/kg, po after 14 days; format: ADME, organism-based; design: dose 30 mg/kg, route oral; settings: read-out: Drug uptake
Mus musculus [17] = experiment: Decrease in food intake of C57BL/6J DIO mouse at 10 mg/kg, po relative to control; format: functional; design: scale not given: the % may be the effect or the level left
Mus musculus [18] = experiment: Decrease in food intake of C57BL/6J DIO mouse at 30 mg/kg, po relative to control; format: functional; design: scale not given: the % may be the effect or the level left
Mus musculus [19] = experiment: Decrease in body weight of C57BL/6J DIO mouse at 1 mg/kg, po relative to control; format: functional, organism-based; design: dose 1 mg/kg
Mus musculus [20] = experiment: Decrease in body weight of C57BL/6J DIO mouse at 3 mg/kg, po relative to control; format: functional, organism-based; design: dose 3 mg/kg
Rattus norvegicus [21] = experiment: Decrease in mean arterial pressure in anesthetized Sprague-Dawley rat at 60 mg/kg; format: functional, Artery; design: scale not given: the % may be the effect or the level left
Rattus norvegicus [22] = experiment: Decrease in heart rate in anesthetized Sprague-Dawley rat at 60 mg/kg; format: functional; design: scale not given: the % may be the effect or the level left
Rattus norvegicus [23] = experiment: Decrease in heart rate in anesthetized Sprague-Dawley rat at 100 mg/kg; format: functional; design: scale not given: the % may be the effect or the level left
[24] = AUC in C57BL/6J DIO mouse plasma at 10 mg/kg, po; format: ADME, organism-based; design: dose 10 mg/kg, route oral

SMILES | IC50 [1] [nM] | IC50 [2] [nM] | further results
Cc1c(C(=O)NC2CCN(Cc3ccc4c(c3)OCO4)CC2)oc2cc(Cl)ccc2c1=O | 2 | 67 | 
O=C(NC1CCN(Cc2ccc3c(c2)OCO3)CC1)c1cc(=O)c2c(Cl)cccc2o1 | 24 | > 10000 | 
O=C(NC1CCN(Cc2ccc3c(c2)OCO3)CC1)c1cc(=O)c2ccc(OC(F)F)cc2o1 | 64 | 160 | 
O=C(NC1CCN(Cc2cccc3c2OCO3)CC1)c1cc(=O)c2ccc(F)cc2o1 | > 700 |  | 
COc1ccc2c(=O)cc(C(=O)NC3CCN(Cc4ccc5c(c4)OCO5)CC3)oc2c1 | 11 | 73 | Cp (Rattus norvegicus [3]): 29 µg/mL; Drug uptake (Rattus norvegicus [4]): 158 µg/g; Cmax [5]: 3600 ng/mL; half-life [6]: 186 min; Cmax [7]: 548 ng/g; half-life [8]: 294 min; AUC (Mus musculus [9]): 4398 ng·h/g; Kp [10]: 0.24; Activity (Mus musculus [11]): 7.3%; Activity (Mus musculus [12]): 15.9%; concentration at 336 h [13]: 10100 ng/mL; concentration at 336 h [14]: 32900 ng/mL; concentration at 336 h [15]: 4900 ng/g; concentration at 336 h [16]: 27100 ng/g; Activity (Mus musculus [17]): 16%; Activity (Mus musculus [18]): 37%; Activity (Mus musculus [19]): inactive; Activity (Mus musculus [20]): inactive
CC(=O)c1ccc(CN2CCC(NC(=O)c3cc(=O)c4ccc(F)cc4o3)CC2)cc1 | 39 | 581 | 
COc1ccc2c(=O)cc(C(=O)NCCC3CCCN3Cc3ccc4c(c3)OCO4)oc2c1 (stereo not given) | > 2000 |  | 
O=C(NC1CCN(Cc2ccc3c(c2)OCO3)CC1)c1cc(=O)c2cc(F)c(Cl)cc2o1 | 3 | 71 | 
O=C(NC1CCN(Cc2ccc3c(c2)OC(F)(F)O3)CC1)c1cc(=O)c2ccc(F)cc2o1 | 57 | 601 | 
COc1ccc2c(=O)cc(C(=O)NC3CCN(Cc4ccc5c(c4)OCO5)C3)oc2c1 (stereo not given) | > 2000 |  | 
O=C(NC1CCN(Cc2ccc3c(c2)OCO3)CC1)c1cc(=O)c2cc(F)ccc2o1 | 65 | 196 | 
O=C(NC1CCN(Cc2ccc3c(c2)OCO3)CC1)c1cc(=O)c2c(Cl)c(Cl)ccc2o1 | 75 | 4750 | 
O=C(NC1CCN(Cc2ccc3c(c2)OCO3)CC1)c1cc(=O)c2cc(F)c(F)cc2o1 | 2 | 13 | Cp (Rattus norvegicus [3]): 34 µg/mL; Drug uptake (Rattus norvegicus [4]): 25 µg/g; Activity (Rattus norvegicus [21]): >15%
O=C(NC1CCN(Cc2ccc3c(c2)OCO3)CC1)c1cc(=O)c2ccc(O)cc2o1 | 1480 | > 10000 | 
O=C(NC1CCN(Cc2ccccc2)CC1)c1cc(=O)c2ccc(F)cc2o1 | 60 | 592 | 
COc1ccc2c(=O)cc(C(=O)N3CCN(Cc4ccc5c(c4)OCO5)CC3)oc2c1 | > 2000 |  | 
O=C(NC1CCN(Cc2ccc3c(c2)OCO3)CC1)c1cc(=O)c2cc(Cl)ccc2o1 | 734 | 2050 | 
N#Cc1ccc2c(=O)cc(C(=O)NC3CCN(Cc4ccc5c(c4)OCO5)CC3)oc2c1 | 47 | 137 | 
O=C(NC1CCN(Cc2cccc(F)c2)CC1)c1cc(=O)c2ccc(F)cc2o1 | 12 | 966 | 
COc1cccc(CN2CCC(NC(=O)c3cc(=O)c4ccc(F)cc4o3)CC2)c1 | 31 | 390 | 
O=C(NC1CCN(Cc2ccc3c(c2)OCO3)CC1)c1cc(=O)c2cc(F)c(F)c(F)c2o1 | 91 | 418 | 
COc1ccc2c(=O)cc(C(=O)NC3CCC(CNCc4ccc5c(c4)OCO5)CC3)oc2c1 (stereo not given) | > 2000 |  | 

SMILES | IC50 [1] [nM] | IC50 [2] [nM] | further results
COc1cc2oc(C(=O)NC3CCN(Cc4ccc5c(c4)OCO5)CC3)cc(=O)c2cc1F | 2 | 16 | Cp (Rattus norvegicus [3]): 105 µg/mL; Drug uptake (Rattus norvegicus [4]): 149 µg/g; Activity (Rattus norvegicus [21]): 15.3%; Activity (Rattus norvegicus [22]): <15%
O=C(NC1CCN(Cc2ccccc2F)CC1)c1cc(=O)c2ccc(F)cc2o1 | 566 | 2150 | 
O=C(NC1CCN(Cc2ccc3c(c2)OCO3)CC1)c1cc(=O)c2ccccc2o1 | 66 | 192 | 
COc1ccc2c(=O)cc(C(=O)NC3CCCN(Cc4ccc5c(c4)OCO5)C3)oc2c1 (stereo not given) | > 2000 |  | 
O=C(NC1CCN(Cc2ccc3c(c2)OCO3)CC1)c1cc(=O)c2cc(C(F)(F)F)ccc2o1 | 351 |  | 
O=C(NC1CCN(Cc2cc3c(cc2Cl)OCO3)CC1)c1cc(=O)c2ccc(F)cc2o1 | 22 | 266 | 
O=C(NC1CCN(Cc2ccc3c(c2)OCO3)CC1)c1cc(=O)c2ccc(Br)cc2o1 | 32 | 82 | 
COc1ccc(CN2CCC(NC(=O)c3cc(=O)c4ccc(F)cc4o3)CC2)cc1OC | 427 |  | 
COc1ccc(CN2CCC(NC(=O)c3cc(=O)c4ccc(F)cc4o3)CC2)cc1 | 13 | 101 | 
O=C(NC1CCN(Cc2ccc3c(c2)OCO3)CC1)c1cc(=O)c2cc(OC(F)(F)F)ccc2o1 | 132 | > 9000 | 
O=C(NC1CCN(Cc2ccc3c(c2)OCO3)CC1)c1cc(=O)c2cc(F)cc(F)c2o1 | 99 | 2720 | 
O=C(NC1CCN(Cc2ccc3c(c2)OCO3)CC1)c1cc(=O)c2ccc(C(F)(F)F)cc2o1 | 178 | 3070 | 
Cc1ccc2oc(C(=O)NC3CCN(Cc4ccc5c(c4)OCO5)CC3)cc(=O)c2c1 | 393 |  | 
O=C(NC1CCN(Cc2ccc3c(c2)OCO3)CC1)c1cc(=O)c2cc(Cl)c(Cl)cc2o1 |  | 83 | Cp (Rattus norvegicus [3]): 20 µg/mL; Drug uptake (Rattus norvegicus [4]): 63 µg/g; Activity (Rattus norvegicus [23]): 10%; Cmax [5]: 33 ng/mL; half-life [6]: 54 min; AUC [24]: 39 ng·h/mL; AUC (Mus musculus [9]): 0 ng·h/g
CC(=O)Nc1ccc(CN2CCC(NC(=O)c3cc(=O)c4ccc(F)cc4o3)CC2)cc1 | 1690 | > 10000 | 
O=C(NC1CCN(Cc2ccc3c(c2)OCO3)CC1)c1cc(=O)c2ccc(Cl)cc2o1 | 5 | 79 | 
O=C(NC1CCN(Cc2ccc3c(c2)OCCO3)CC1)c1cc(=O)c2ccc(F)cc2o1 | 73 | 171 | 
COc1ccc2c(=O)cc(C(=O)NCC3CCN(Cc4ccc5c(c4)OCO5)C3)oc2c1 (stereo not given) | 1140 | 8300 | 
CCc1ccc2c(=O)cc(C(=O)NC3CCN(Cc4ccc5c(c4)OCO5)CC3)oc2c1 | 59 | 529 | 
COc1ccc(CN2CCC(NC(=O)c3cc(=O)c4ccc(F)cc4o3)CC2)c(F)c1 | 53 | 411 | 
O=C(NC1CCN(Cc2ccc(F)cc2)CC1)c1cc(=O)c2ccc(F)cc2o1 | 159 | 789 | 
O=C(NC1CCN(Cc2ccc3c(c2)OCO3)CC1)c1cc(=O)c2cc(Br)ccc2o1 | 187 | > 6000 | 
